The data set in a line: gradient 5% acetonitrile 3 min, to 50% in 2 min, to 85% in 15 min, held 3 min, 100 µL/min. The settings on record: column: Zorbax Extend-C18 2.1 x 50 mm; eluents: water / acetonitrile, 0.1% formic acid. The method in brief:
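Pure standards were analyzed in mixtures of ~100 molecules using HPLC coupled to a quadrupole time-of-flight mass spectrometer, in both positive and negative ionization mode. Separation used a Zorbax Extend-C18 column (2.1 × 50 mm, 1.8 μm) at 100 μL/min, with water and acetonitrile each containing 0.1% formic acid. Dead and dwell volumes were 40 μL and 900 μL, and data were collected over 3 months. Retention time was read from computationally picked adduct peaks, each inspected manually.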
The compound `COc1ccc(C2c3[nH]c4ccccc4c3CCN2C(=O)c2ccncc2)cc1` (centres undefined) gave an RP-LC retention time of 877 s.

For the compound `NCCNc1ccc(NCCN)c2c1C(=O)c1ccncc1C2=O`, the RP-LC retention time amounted to 564 s.

Take `CCCCS(=O)(=O)c1cc2c(cc1NC(=O)c1ccccc1Br)n(C)c(=O)n2C`: the RP-LC retention time is 896 s.

`O=C(Cn1nc(C(=O)N2CCOCC2)c2ccccc21)Nc1ccc(F)cc1F`: the RP-LC retention time was determined as 732 s.

As to `CNC(=O)c1c(NC(=O)COc2ccccc2)sc2c1CCC2`, the RP-LC retention time is 1020 s.

On to `CCCNC(=O)Nc1ccc(NC(=O)N2CCCC(C(=O)NCC3CCCCC3)C2)cc1` (centres undefined), for which the RP-LC retention time is 776 s.

As for `Cc1ccc(S(=O)(=O)NC2CCS(=O)(=O)C2)cc1[N+](=O)[O-]` (centres undefined), the RP-LC retention time came out at 678 s.

On to `O=C(CCc1c(-c2ccc(Cl)cc2)nc2ccccn12)NCC1CCCO1` (centres undefined), for which the RP-LC retention time was 602 s.

`CCn1c(=O)c(N2CCC(NC(=O)NCCc3ccccc3)CC2)nc2ccccc21` showed an RP-LC retention time of 882 s.

Turning to `O=C(CN1C(=O)CCCc2cc(S(=O)(=O)N3CCCC3)ccc21)NC1CCCCCC1`, the RP-LC retention time was found to be 848 s.

For `O=C(NCc1ccccn1)c1ccc2ncnc(N3CCCCC3)c2c1`, the RP-LC retention time is 551 s.

Turning to `CC1(C(=O)NCc2ccccc2)CCCN(S(=O)(=O)c2ccccc2)C1` (centres undefined), the RP-LC retention time was found to be 883 s.

In the case of `O=C1CN(S(=O)(=O)c2cccc(C(F)(F)F)c2)CC2(CCCCC2)N1C1CCCC1`, the RP-LC retention time is 1250 s.

Compound `Cn1nccc1C(=O)N1CCN(C(=O)c2cc(-c3ccncc3)n[nH]2)CC1` showed an RP-LC retention time of 523 s.

The compound `COCCc1noc(C2Cc3ccccc3N2C(=O)NCC(=O)OC)n1` (centres undefined) yielded an RP-LC retention time of 720 s.

The compound `COc1ccc(Br)c2c1C(=O)CC2` returned an RP-LC retention time of 826 s.

The compound `Cc1sc(NC(=O)c2cccs2)nc1-c1ccccc1` had an RP-LC retention time of 1070 s.

`CCCNC(=O)CC1Sc2ncccc2N(CC)C1=O` (centres undefined) registered an RP-LC retention time of 642 s.

`O=c1ccc(-c2ccccc2F)nn1Cc1nc(-c2ccccc2Cl)no1` came in with an RP-LC retention time of 1020 s.

In turn, `O=c1ccc(-c2ccccc2)nn1CCc1nc(-c2ccncc2)no1` yielded an RP-LC retention time of 727 s.

In turn, `CC(C)(c1cc(Cl)c(O)c(CN2CCOCC2)c1)c1cc(Cl)c(O)c(CN2CCOCC2)c1` returned an RP-LC retention time of 630 s.

With `Cc1cccc(-c2noc(Cc3nnc(-c4cc(C)cc(C)c4)o3)n2)c1`, the RP-LC retention time stood at 842 s.

Turning to `CCN(CC)CCNC(=O)C1c2ccccc2Oc2ccccc21`, the RP-LC retention time worked out at 655 s.

Compound `CCN1CCN(CCCNC(=O)c2cc(-c3ccc(C)c(C)c3)[nH]c2C)CC1` registered an RP-LC retention time of 595 s.

`Cc1sc(-c2cc(C(F)(F)F)on2)cc1S(=O)(=O)N1CCN(c2ccccc2)CC1`: the RP-LC retention time came out at 1300 s.

`COc1ccc(N2C(=O)C(O)=C(S(=O)(=O)c3ccccc3)C2c2ccccc2)cc1` (centres undefined) returned an RP-LC retention time of 854 s.

In the case of `CC(C)NC(=O)c1cc2c(=O)oc3ccccc3c2n1C`, the RP-LC retention time was found to be 760 s.

Consider `Clc1nc(Oc2ccccc2)nc(-c2cn(-c3ccccc3)c3ccccc23)n1`, for which the RP-LC retention time amounted to 732 s.

`Cc1cccc(NC(=O)c2cn(CC(=O)NC3CCCC3)c3nc(C)ccc3c2=O)c1` yielded an RP-LC retention time of 996 s.

As for `CCc1cc(=O)n(CC(=O)Nc2ccc(OC)cc2)c(N2CCOCC2)n1`, the RP-LC retention time came out at 699 s.

In the case of `O=C(NC1CCCCCCC1)C1CCN(C(=O)c2ncn3c2COC(c2ccccc2)C3)CC1` (centres undefined), the RP-LC retention time was 885 s.

In the case of `Cn1cc(C(=O)NCc2cccc(Cl)c2)c(S(=O)(=O)N2CCSCC2)n1`, the RP-LC retention time was determined as 892 s.

Compound `Cn1cc(-c2ccncc2)cc1C(=O)NCc1ccc(F)cc1F` displayed an RP-LC retention time of 648 s.

The compound `Cc1c(Cl)cccc1Nc1c(-c2ccc(N(C)C)cc2)nc2cnccn12` displayed an RP-LC retention time of 961 s.

In the case of `CCCCn1cc(S(=O)(=O)N2CCN(c3ccc(C)cc3)CC2)c2cccnc21`, the RP-LC retention time was 1220 s.

Compound `CN(C)c1ccc(CNC(=O)C2CCN(c3cncnc3N3CCCCC3)CC2)cc1` registered an RP-LC retention time of 564 s.

In the case of `Cn1c(=O)sc2cc(S(=O)(=O)N3CCC(C(=O)N4CCCCC4)CC3)ccc21`, the RP-LC retention time worked out at 764 s.

As for `CCC(=O)Nc1cc2c(cc1N1CCC(C)CC1)n(C)c(=O)c(=O)n2C`, the RP-LC retention time turned out to be 773 s.

For the compound `Cc1ccc(CNc2ncccc2-c2nnc(-c3ccc(Cl)cc3)o2)o1`, the RP-LC retention time is 1350 s.

On to `Cc1ccc(CNC(=O)Cn2c(C(C)C)nc3c(c2=O)CN(Cc2ccccc2)CC3)cc1`, for which the RP-LC retention time came to 694 s.

The compound `O=C(Cn1cnc2nc(N3CCC(C(=O)NC4CC4)CC3)sc2c1=O)NCc1ccc(F)cc1` showed an RP-LC retention time of 655 s.

The compound `O=C(Nc1ccc(Br)cc1F)C1CCCN(c2nc3ccccc3nc2C(F)(F)F)C1` (centres undefined) showed an RP-LC retention time of 1360 s.

For `O=C(CCNc1c(-c2ccccc2)nc2cnccn12)NCC1CCCO1` (centres undefined), the RP-LC retention time was found to be 576 s.

`Cn1nc(C(=O)NC2CCN(c3cc(-c4ccccc4)[nH]n3)CC2)c2ccccc21` yielded an RP-LC retention time of 792 s.

`COc1cccc(N2CCN(Cc3nc(-c4ccc(N5CCCCC5)nc4)no3)CC2)c1` registered an RP-LC retention time of 930 s.

Turning to `COCCCNc1c(-c2ccc(F)cc2)nc2sc(C(=O)N3CCOCC3)c(C)n12`, the RP-LC retention time is 741 s.

Compound `Fc1ccc(-c2nc3cnccn3c2Nc2ccc(Cl)cc2)cc1` showed an RP-LC retention time of 936 s.

`CN(CCNC(=O)C1c2ccccc2C(=O)N(C)C1c1cccs1)C1CCCCC1` (centres undefined): the RP-LC retention time was found to be 706 s.

For `CC(C)OC(=O)c1cc2ccsc2n1CC(=O)NCc1ccc(F)cc1`, the RP-LC retention time came to 954 s.

On to `Cc1ccc(N2CCC(NC(=O)C(C)(C)C)C2=O)cc1C` (centres undefined), for which the RP-LC retention time was 802 s.

Take `Cc1cc(C)cc(NS(=O)(=O)c2cc(-c3[nH]ncc3C(=O)N(C)C)oc2C)c1`: the RP-LC retention time was 718 s.

`Cc1cccc(C)c1OCC(=O)c1ccc2c(c1)N(CCCC(=O)NCC1CCCO1)C(=O)CO2` (centres undefined) came in with an RP-LC retention time of 803 s.

With `CN(C)c1ccc(-c2nc3ncccn3c2NCc2ccccc2)cc1`, the RP-LC retention time stood at 726 s.

On to `O=S(=O)(c1cccnc1)N1CCC(OC2CCN(Cc3ccccc3)CC2)CC1`, for which the RP-LC retention time was 637 s.

Take `O=C(c1ccccc1)N1C[C@@H]2C[C@H]1C[C@@H]2NS(=O)(=O)c1cccnc1`: the RP-LC retention time turned out to be 630 s.

Regarding `CCOc1ccc(-c2noc(C3CC(=O)N(c4ccc5c(c4)OCO5)C3)n2)cc1` (centres undefined), the RP-LC retention time came to 951 s.

Compound `O=C(NCCN1CCOCC1)C1CC(=O)N(CCc2c[nH]c3ccc(Cl)cc23)C1` (centres undefined) displayed an RP-LC retention time of 604 s.

On to `Cc1cc(C)nc(Nc2nc(CC(=O)NCCc3ccc(S(N)(=O)=O)cc3)cs2)n1`, for which the RP-LC retention time is 604 s.

As for `NC(=O)c1ccc2c(c1)CCCN2C(=O)c1ccc(Cl)cc1`, the RP-LC retention time is 704 s.

Values taken from the METLIN SMRT retention time set (Domingo-Almenara et al. 2019).
